Biological target: T1, BACE1 (Homo sapiens, UniProt P56817)
T1 construct: Human HEK293 cells which are stably transfected with a vector expressing a cDNA of the human APP wt gene (APP695); endogenous in cells; host or cells: HEK293 cells stably transfected with human APP695 (wt)
Experiment: Cellular Aβ-lowering assay a) (Aβ40 ELISA)
Assay type: cell-based
Conditions: cellular assay a): HEK293 cells expressing human APP695, Aβ40 in supernatant by ELISA after 18-20 hrs; read-out: BACE1 cell act. Aβ40 IC50
Procedure: a) Human HEK293 cells which are stably transfected with a vector expressing a cDNA of the human APP wt gene (APP695) were used to assess the potency of the compounds in a cellular assay. The cells were seeded in 96-well microtiter plates in cell culture medium (Iscove, plus 10% (v/v) fetal bovine serum, glutamine, penicillin/streptomycin) to about 80% confluence and the compounds were added at a 10× concentration in 1/10 volume of medium without FCS containing 8% DMSO (final concentration of DMSO was kept at 0.8% v/v). After 18-20 hrs incubation at 37° C. and 5% CO2 in a humidified incubator the culture supernatant was harvested for the determination of Aβ40 concentrations. 96 well ELISA plates (e.g., Nunc MaxiSorb) were coated with monoclonal antibody which specifically recognize the C-terminal end of Aβ40 (Brockhaus et al., NeuroReport 9, 1481-1486; 1998). After blocking of non-specific binding sites with e.g. 1% BSA and washing, the culture supernatants were added in suitable dilutions together with a horseradish peroxidase-coupled Aβ detection antibody (e.g., antibody 4G8, Senetek, Maryland Heights, Mo.) and incubated for 5 to 7 hrs. Subsequently the wells of the microtiter plate were washed extensively with Tris-buffered saline containing 0.05% Tween 20 and the assay was developed with tetramethylbenzidine/H2O2 in citric acid buffer. After stopping the reaction with one volume of 1N H2SO4 the reaction was measured in an ELISA reader at 450 nm wavelength. The concentrations of Aβ in the culture supernatants were calculated from a standard curve obtained with known amounts of pure Aβ peptide.

T1 sequence (P56817 46-501): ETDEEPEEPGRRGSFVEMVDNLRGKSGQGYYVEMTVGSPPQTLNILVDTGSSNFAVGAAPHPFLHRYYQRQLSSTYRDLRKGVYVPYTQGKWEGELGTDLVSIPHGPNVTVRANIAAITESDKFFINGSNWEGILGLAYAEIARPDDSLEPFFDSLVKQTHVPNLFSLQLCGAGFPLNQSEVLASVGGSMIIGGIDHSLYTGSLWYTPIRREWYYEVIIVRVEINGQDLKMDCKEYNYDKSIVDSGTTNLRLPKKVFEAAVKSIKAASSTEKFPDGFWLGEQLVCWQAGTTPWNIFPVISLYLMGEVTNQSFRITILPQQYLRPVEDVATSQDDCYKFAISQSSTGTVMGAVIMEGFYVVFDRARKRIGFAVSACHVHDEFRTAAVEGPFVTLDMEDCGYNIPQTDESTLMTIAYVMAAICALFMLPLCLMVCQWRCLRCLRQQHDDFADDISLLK

SMILES	IC50 [nM]
NC1=N[C@@]2(CC(c3ccccc3)Oc3ccc(-c4cncc(Cl)c4)cc32)C(F)(F)CO1 (mixture of isomers) [Example 23, (2RS,4R)-6-(5-chloropyridin-3-yl)-5′,5′-difluoro-2-phenyl-5′,6′-dihydrospiro[chroman-4,4′-[1,3]oxazin]-2′-amine]	420
N#Cc1cncc(-c2ccc3c(c2)[C@@]2(CC(c4ccccc4)O3)N=C(N)OCC2(F)F)c1 (mixture of isomers) [Example 24, 5-((2RS,4R)-2′-amino-5′,5′-difluoro-2-phenyl-5′,6′-dihydrospiro[chroman-4,4′-[1,3]oxazine]-6-yl)nicotinonitrile]	98
NC1=N[C@@]2(CC(c3ccccc3)Oc3ccc(-c4cc(Cl)cc(Cl)c4)cc32)C(F)(F)CO1 (mixture of isomers) [Example 26, (2RS,4R)-6-(3,5-dichlorophenyl)-5′,5′-difluoro-2-phenyl-5′,6′-dihydrospiro[chroman-4,4′-[1,3]oxazin]-2′-amine]	2870
NC1=N[C@@]2(CC(c3ccccc3)Oc3ccc(NC(=O)c4ccc(C(F)(F)F)cn4)cc32)C(F)(F)COC1 (mixture of isomers) [Example 52, N-((2RS,4R)-3′-Amino-6′,6′-difluoro-2-phenyl-6′,7′-dihydro-2′H-spiro[chroman-4,5′-[1,4]oxazepine]-6-yl)-5-(trifluoromethyl)picolinamide]	3380
N#Cc1ccc(C(=O)Nc2ccc3c(c2)[C@@]2(CC(c4ccccc4)O3)N=C(N)COCC2(F)F)nc1 (mixture of isomers) [Example 53, N-((2RS,4R)-3′-Amino-6′,6′-difluoro-2-phenyl-6′,7′-dihydro-2′H-spiro[chroman-4,5′-[1,4]oxazepine]-6-yl)-5-cyanopicolinamide]	470
NC1=N[C@@]2(CC(c3ccccc3)Oc3ccc(-c4cncc(Cl)c4)cc32)C(F)(F)COC1 (mixture of isomers) [Example 56, (2RS,4R)-6-(5-Chloropyridin-3-yl)-6′,6′-difluoro-2-phenyl-6′,7′-dihydro-2′H-spiro[chroman-4,5′-[1,4]oxazepin]-3′-amine]	2100
NC1=N[C@@]2(CC(c3ccccc3)Oc3ccc(-c4cc(Cl)cc(Cl)c4)cc32)C(F)(F)COC1 (mixture of isomers) [Example 57, (2RS,4R)-6-(3,5-Dichlorophenyl)-6′,6′-difluoro-2-phenyl-6′,7′-dihydro-2′H-spiro[chroman-4,5′-[1,4]oxazepin]-3′-amine]	6280
NC1=N[C@@]2(CC(c3ccccc3)Oc3ccc(-c4cncnc4)cc32)C(F)(F)COC1 (mixture of isomers) [Example 58, (2RS,4R)-6′,6′-difluoro-2-phenyl-6-(pyrimidin-5-yl)-6′,7′-dihydro-2′H-spiro[chroman-4,5′-[1,4]oxazepin]-3′-amine]	1290
N#Cc1cncc(-c2ccc3c(c2)[C@@]2(CC(c4ccccc4)O3)N=C(N)COCC2(F)F)c1 (mixture of isomers) [Example 59, 5-((2RS,4R)-3′-amino-6′,6′-difluoro-2-phenyl-6′,7′-dihydro-2′H-spiro[chroman-4,5′-[1,4]oxazepine]-6-yl)nicotinonitrile]	340
N#Cc1cccc(-c2ccc3c(c2)[C@@]2(CC(c4ccccc4)O3)N=C(N)COCC2(F)F)c1 (mixture of isomers) [Example 60, 3-((2RS,4R)-3′-amino-6′,6′-difluoro-2-phenyl-6′,7′-dihydro-2′H-spiro[chroman-4,5′-[1,4]oxazepine]-6-yl)benzonitrile]	1040
NC1=N[C@@]2(CC(c3ccccc3)Oc3ccc(NC(=O)c4ccc(Cl)cn4)cc32)C(F)(F)CO1 (single isomer, unassigned) [Example 36, N-((2R or 2S,4R)-2′-Amino-5′,5′-difluoro-2-phenyl-5′,6′-dihydrospiro[chroman-4,4′-[1,3]oxazine]-6-yl)-5-chloropicolinamide]	195
N#Cc1ccc(C(=O)Nc2ccc3c(c2)[C@@]2(CC(c4ccccc4)O3)N=C(N)OCC2(F)F)nc1 (single isomer, unassigned) [Example 37, N-((2R or 2S,4R)-2′-Amino-5′,5′-difluoro-2-phenyl-5′,6′-dihydrospiro[chroman-4,4′-[1,3]oxazine]-6-yl)-5-cyanopicolinamide]	70
NC1=N[C@@]2(CC(c3ccccc3)Oc3ccc(NC(=O)c4ccc(F)cn4)cc32)C(F)(F)CO1 (single isomer, unassigned) [Example 38, N-((2R or 2S,4R)-2′-Amino-5′,5′-difluoro-2-phenyl-5′,6′-dihydrospiro[chroman-4,4′-[1,3]oxazine]-6-yl)-5-fluoropicolinamide]	510
NC1=N[C@@]2(CC(c3ccccc3)Oc3ccc(NC(=O)c4ccc(C(F)(F)F)cn4)cc32)C(F)(F)CO1 (single isomer, unassigned) [Example 39, N-((2R or 2S,4R)-2′-Amino-5′,5′-difluoro-2-phenyl-5′,6′-dihydrospiro[chroman-4,4′-[1,3]oxazine]-6-yl)-5-(trifluoromethyl)picolinamide]	280
NC1=N[C@@]2(CCCc3ccc(NC(=O)c4ccc(Cl)cn4)cc32)C(F)(F)CO1 [Example 12, (R)—N-(2′-Amino-5′,5′-difluoro-3,4,5′,6′-tetrahydro-2H-spiro[naphthalene-1,4′-[1,3]oxazine]-7-yl)-5-chloropicolinamide]	22
NC1=N[C@@]2(CCc3ccc(NC(=O)c4ccc(C(F)(F)F)cn4)cc32)C(F)(F)CO1 [Example 18, (R)—N-(2′-Amino-5′,5′-difluoro-2,3,5′,6′-tetrahydrospiro[indene-1,4′-[1,3]oxazine]-6-yl)-5-(trifluoromethyl)picolinamide]	660
N#Cc1cccc(-c2ccc3c(c2)[C@@]2(CC(c4ccccc4)O3)N=C(N)OCC2(F)F)c1 (stereo partly shown) [Example 27]	260

Continued, values first:

IC50 [nM]	SMILES
1580	NC1=N[C@@]2(CC(c3ccccc3)Oc3ccc(-c4cncnc4)cc32)C(F)(F)CO1 (mixture of isomers) [Example 25, (2RS,4R)-5′,5′-difluoro-2-phenyl-6-(pyrimidin-5-yl)-5′,6′-dihydrospiro[chroman-4,4′-[1,3]oxazin]-2′-amine]
2550	NC1=N[C@@]2(CCC(F)(F)c3ccc(-c4cncc(Cl)c4)cc32)C(F)(F)CO1 [Example 3, (R)-7-(5-Chloropyridin-3-yl)-4,4,5′,5′-tetrafluoro-3,4,5′,6′-tetrahydro-2H-spiro[naphthalene-1,4′-[1,3]oxazin]-2′-amine]
5690	NC1=N[C@@]2(CCC(F)(F)c3ccc(-c4cncc(F)c4)cc32)C(F)(F)CO1 [Example 4, (R)-4,4,5′,5′-Tetrafluoro-7-(5-fluoropyridin-3-yl)-3,4,5′,6′-tetrahydro-2H-spiro[naphthalene-1,4′-[1,3]oxazin]-2′-amine]
2770	N#Cc1cncc(-c2ccc3c(c2)[C@@]2(CCC3(F)F)N=C(N)OCC2(F)F)c1 [Example 5, (R)-5-(2′-Amino-4,4,5′,5′-tetrafluoro-3,4,5′,6′-tetrahydro-2H-spiro[naphthalene-1,4′-[1,3]oxazine]-7-yl)nicotinonitrile]
1360	NC1=N[C@@]2(CCc3ccc(-c4ccnc(Cl)c4)cc32)C(F)(F)CO1 [Example 6, (R)-6-(2-Chloropyridin-4-yl)-5′,5′-difluoro-2,3,5′,6′-tetrahydrospiro[indene-1,4′-[1,3]oxazin]-2′-amine]
2370	NC1=N[C@@]2(CCc3ccc(-c4cncnc4)cc32)C(F)(F)CO1 [Example 7, (R)-5′,5′-Difluoro-6-(pyrimidin-5-yl)-2,3,5′,6′-tetrahydrospiro[indene-1,4′-[1,3]oxazin]-2′-amine]
960	N#Cc1cccc(-c2ccc3c(c2)[C@@]2(CC3)N=C(N)OCC2(F)F)c1 [Example 10, (R)-3-(2′-Amino-5′,5′-difluoro-2,3,5′,6′-tetrahydrospiro[indene-1,4′-[1,3]oxazine]-6-yl)benzonitrile]
510	N#Cc1ccc(C(=O)Nc2ccc3c(c2)[C@@]2(CC3)N=C(N)OCC2(F)F)nc1 [Example 15, (R)—N-(2′-Amino-5′,5′-difluoro-2,3,5′,6′-tetrahydrospiro[indene-1,4′-[1,3]oxazine]-6-yl)-5-cyanopicolinamide]
2490	NC1=N[C@@]2(CCc3ccc(NC(=O)c4ccc(Cl)cn4)cc32)C(F)(F)CO1 [Example 16, (R)—N-(2′-Amino-5′,5′-difluoro-2,3,5′,6′-tetrahydrospiro[indene-1,4′-[1,3]oxazine]-6-yl)-5-chloropicolinamide]
5140	NC1=N[C@@]2(CCOc3ccc(-c4cncnc4)cc32)C(F)(F)CO1 [Example 21, (R)-5′,5′-difluoro-6-(pyrimidin-5-yl)-5′,6′-dihydrospiro[chroman-4,4′-[1,3]oxazin]-2′-amine]
2530	CC1(C)C[C@@]2(N=C(N)OCC2(F)F)c2cc(-c3cncc(Cl)c3)ccc2O1 [Example 28, (R)-6-(5-chloropyridin-3-yl)-5′,5′-difluoro-2,2-dimethyl-5′,6′-dihydrospiro[chroman-4,4′-[1,3]oxazin]-2′-amine]

— patent US9079919B2 (HOFFMANN-LA ROCHE INC., priority 2011, dated 2015)
